Source: patent US20250121025A1, “SCALP-DERIVED PEPTIDES ALLEVIATING HAIR LOSS SYMPTOMS” (NEWTREE CO., LTD, priority 2023, published 2025)

What was measured:
[1] = test system: dermal papilla (DP) cells; assay: Cell viability (CCK-8) in dermal papilla cells; format: cell-based, human
Experimental: (§1) In order to evaluate the efficacy of peptide treatment (RKLW and RQLW) to promote skin cell proliferation, human keratinocytes and dermal papilla (DP) cells were treated with RKLW and RQLW at 0.1, 1, and 10 μM. After being cultured for 24 and 48 hours, cells were treated with Cell Counting Kit-8 (CCK-8) to measure cell viability, and the results are shown in FIG. 3.

[2] = test system: Wnt signaling pathway proteins (p-GSK-3β and β-catenin); assay: Western blot of Wnt signaling pathway proteins in DP cells; format: cell-based, human; conditions: 0.1, 1, 10 μM, 24 hours
Experimental: (§2) Specifically, the expressions of proteins involved in major signaling pathways related to hair growth were analyzed when HaCaT and DP cells were treated with RKLW and RQLW at 0.1, 1, and 10 μM and cultured for 24 hours.
(§3) Furthermore, the protein immunoblot (Western blot) results showing differential expressions and phosphorylation of proteins involved in Wnt signaling pathway in HaCaT and DP cells are shown in FIG. 6. […] When DP cells were treated with RKLW or RQLW, the expression of p-GSK-3β was not increased, but the expression of β-catenin was increased, meaning that in DP cells, RKLW or RQLW accumulates β-catenin through a pathway other than GSK-3β to activate Wnt signaling.

[3] = test system: androgen receptor (AR) and its target proteins (DKK-1 and TGF-β); assay: Western blot of AR and its target proteins in HaCaT cells; format: cell-based, human; conditions: 0.1, 1, 10 μM, 24 hours
Experimental: (§4) The expression and phosphorylation of protein markers involved in alopecia-related signal transduction pathways were evaluated after treatment with peptides (RKLW and RQLW).
(§5) DHT-AR and Wnt/beta-catenin pathway: An androgen receptor (AR) is a protein that binds to dihydrotestosterone (DHT), a representative inducer of androgenetic alopecia, and when the AR is activated by binding to DHT, Dickkopf-1 (DKK-1) and transforming growth factor beta (TGF-β) are expressed and promote alopecia. In addition, DKK-1, which is expressed by the activation of the AR, suppresses the Wnt signaling pathway involved in the development and growth of hair follicles, and TGF-β induces alopecia by suppressing the growth of hair follicle cells.
as §2
(§6) The protein immunoblot (Western blot) results of the expression of the AR and its target proteins (DKK-1 and TGF-β) in HaCaT and DP cells are shown in FIG. 5. […] When DP cells were treated with RKLW or RQLW, the expression levels of both the AR and its target protein TGF-β was reduced.

[4] = test system: mitochondrial apoptosis signaling pathway proteins (Bax, Bcl-2, Caspase-3, and PARP); assay: Western blot of mitochondrial apoptosis signaling proteins in HaCaT cells; format: cell-based, human; conditions: 0.1, 1, 10 μM, 24 hours
Experimental: (§7) Mitochondrial apoptosis: Bax is a pro-apoptotic protein that promotes apoptosis, and Bcl-2 is a pro-survival protein that suppresses apoptosis; the balance between these two proteins is important in regulating apoptosis.
(§8) Specifically, the expressions of proteins involved in mitochondrial apoptotic signaling pathways were analyzed when HaCaT and DP cells were treated with RKLW and RQLW at 0.1, 1, and 10 μM and cultured for 24 hours, and the results are shown in FIG. 7.

[5] = test system: androgen receptor (AR) and its target proteins (DKK-1 and TGF-β); assay: Western blot of AR and its target proteins in DP cells; format: cell-based, human; conditions: 0.1, 1, 10 μM, 24 hours
Experimental: as §4, §5, §2, §6

[6] = test system: cell cycle marker proteins (Cyclin D1, CDK4, Cyclin E1, and CDK2); assay: Western blot of cell cycle marker proteins in DP cells; format: cell-based, human; conditions: 0.1, 1, 10 μM, 24 hours
Experimental: (§9) Cell cycle: maintaining the G1 phase of the cell cycle of scalp skin cells plays an important role in maintaining scalp health.
(§10) Specifically, the expressions of Cyclin D/CDK4 and Cyclin E/CDK2, which activate the G1 phase, were analyzed when HaCaT and DP cells were treated with RKLW and RQLW at 0.1, 1, and 10 µM and cultured for 24 hours, and the results are shown in FIG. 8.

[7] = test system: Wnt signaling pathway proteins (p-GSK-3β and β-catenin); assay: Western blot of Wnt signaling pathway proteins in HaCaT cells; format: cell-based, human; conditions: 0.1, 1, 10 μM, 24 hours
Experimental: as §2, §3

HaCaT cells = assay: Cell viability (CCK-8) in human keratinocytes; format: cell-based
Experimental: as §1

[8] = test system: cell cycle marker proteins (Cyclin D1, CDK4, Cyclin E1, and CDK2); assay: Western blot of cell cycle marker proteins in HaCaT cells; format: cell-based, human; conditions: 0.1, 1, 10 μM, 24 hours
Experimental: as §9, §10

[9] = test system: mitochondrial apoptosis signaling pathway proteins (Bax, Bcl-2, Caspase-3, and PARP); assay: Western blot of mitochondrial apoptosis signaling proteins in DP cells; format: cell-based, human; conditions: 0.1, 1, 10 μM, 24 hours
Experimental: as §7, §8

Row | Substance | cell viability of dermal papilla cells ([1]; 1 and 10 μM, 24 hours) | expression of p-GSK-3β [2] | expression of β-catenin [2] | AR expression [3] | expression level of DKK-1 [3] | expression level of TGF-β [3] | effect of suppressing apoptosis [4] | expression level of AR [5] | expression level of TGF-β [5] | expression level of Cyclin D/CDK4 [6] | expression level of Cyclin E/CDK2 [6] | expression level of p-GSK-3β [7] | expression level of β-catenin [7] | expression level of Cyclin D/CDK4 [8] | expression level of Cyclin E/CDK2 [8] | expression ratio of Bax/Bcl-2 [9] | other results
1 | RQLW (listed as Homo sapiens) | significantly increased cell viability | not increased | increased | no significant change | decreased | decreased | showed an effect of suppressing apoptosis | reduced | reduced | increased | did not affect | increased | increased | increased | increased | unable to regulate | cell viability of dermal papilla cells ([1]; 48 hours): no significant difference; expression ratio of Bax/Bcl-2 [4]: tended to decrease; protein level of PARP [4]: tended to decrease; protein level of cleaved caspase-3 [4]: tended to decrease; concentration at which cell viability was significantly increased (HaCaT cells; after 24 hours): ≥ 100 µM; concentration at which cell viability was significantly increased (HaCaT cells; after 48 hours): ≥ 10 µM
2 | RKLW (listed as Homo sapiens) | significantly increased cell viability | not increased | increased | no significant change | decreased | decreased | relatively insignificant effect | reduced | reduced | increased | did not affect | increased | increased | increased | increased | unable to regulate | treatment concentration at which cell viability was significantly increased ([1]; 48 hours): ≤ 10 µM; cell viability of HaCaT cells (HaCaT cells; 24 and 48 hours, CCK-8): did not show statistical significance
